This note sets out measurements from ChEMBL document CHEMBL1126371, “Indazole and indoline as aromatic bioisosteres in the imidazole class of serotonin 5-HT3 receptor antagonists” (Bioorg Med Chem Lett, 1992).

Active and inactive are the calls of the source. The rule behind the calls is not given here.

The test system of test [1] is Rattus norvegicus. The test is described as follows: Dose required for inhibition of bradycardia induced by a submaximal dose (iv) of 5-HT in 3 rats. The format is functional. Conditions: read-out: ID50 (the source's name).
Test [2] deals with Rattus norvegicus. The test is described as follows: Dose required for inhibition of bradycardia induced by a submaximal dose (iv) of 5-HT in 7 rats. The format is functional. Conditions: read-out: ID50 (the source's name).
In test [3] the test system is Rattus norvegicus. The test is described as follows: Dose required for inhibition of bradycardia induced by a submaximal dose (iv) of 5-HT in 8 rats. The format is functional. The settings on record: read-out: ID50 (the source's name).
In test [4] the target is T1, 5-hydroxytryptamine receptor 1A (Rattus norvegicus) (UniProt P19327).
T1 sequence (whole entry): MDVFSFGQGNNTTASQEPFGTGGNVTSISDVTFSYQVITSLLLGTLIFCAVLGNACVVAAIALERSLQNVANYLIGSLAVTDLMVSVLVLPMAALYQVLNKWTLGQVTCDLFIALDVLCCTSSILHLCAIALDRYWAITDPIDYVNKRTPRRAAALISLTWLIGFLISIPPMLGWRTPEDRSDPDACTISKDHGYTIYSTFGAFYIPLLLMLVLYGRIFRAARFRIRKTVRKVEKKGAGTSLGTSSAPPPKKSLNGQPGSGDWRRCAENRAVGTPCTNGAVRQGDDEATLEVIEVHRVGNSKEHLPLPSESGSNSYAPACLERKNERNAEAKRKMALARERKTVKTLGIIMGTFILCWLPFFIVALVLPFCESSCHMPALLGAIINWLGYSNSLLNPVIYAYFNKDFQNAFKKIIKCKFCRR
The experiment in a line: Tested for the effect on binding at 5-hydroxytryptamine 1A receptor; No activity.

Test [5] has as its target T2, 5-hydroxytryptamine receptor 2C (Rattus norvegicus) (UniProt P08909).
T2 sequence (whole entry): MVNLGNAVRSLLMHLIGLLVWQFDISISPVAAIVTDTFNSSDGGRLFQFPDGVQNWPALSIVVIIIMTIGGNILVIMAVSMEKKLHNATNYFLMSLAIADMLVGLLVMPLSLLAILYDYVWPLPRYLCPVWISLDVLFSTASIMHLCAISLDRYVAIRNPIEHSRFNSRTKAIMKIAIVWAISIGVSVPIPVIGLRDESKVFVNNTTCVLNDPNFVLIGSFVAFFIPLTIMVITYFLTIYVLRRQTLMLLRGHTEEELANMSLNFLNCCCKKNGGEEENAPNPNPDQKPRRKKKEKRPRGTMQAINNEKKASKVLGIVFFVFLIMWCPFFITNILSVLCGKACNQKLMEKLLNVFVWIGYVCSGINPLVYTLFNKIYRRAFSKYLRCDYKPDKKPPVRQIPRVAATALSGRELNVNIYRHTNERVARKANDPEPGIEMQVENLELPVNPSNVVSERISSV
The experiment in a line: Tested for the effect on binding at 5-hydroxytryptamine 1C receptor; No activity.

The target in test [6] is Serotonin 2 (5-HT2) receptor (Rattus norvegicus) (UniProt P30994+P08909+P14842). The experiment in a line: Tested for the effect on binding at 5-hydroxytryptamine 2 receptor; No activity. The format is protein assay.
For test [7], the target named is 5-hydroxytryptamine receptor 1D (Rattus norvegicus) (UniProt P28565). The test is described as follows: Tested for the effect on binding at 5-hydroxytryptamine 1D receptor; No activity.
The target in test [8] is Serotonin 3 (5-HT3) receptor. The experiment in a line: Tested for antagonistic activity on 5-hydroxytryptamine 3 receptor mediated effects of 5-HT in guinea pig isolated ileum. The format is functional, tissue-based, Cavia porcellus.
Test [9] addresses 5-hydroxytryptamine receptor 4 (Rattus norvegicus) (UniProt Q62758). The test is described as follows: Tested for the effect on binding at 5-hydroxytryptamine 4 receptor; No activity.
Test [10] relates to Mustela putorius furo. The test is described as follows: Reduction in the latency period to the first episode in ferret at a dose of 0.01 mg/kg, po. The format is functional.
Test [11] has as its system Mustela putorius furo. The test is described as follows: Reduction in the latency period to the first episode in ferret at a dose of 0.5 mg/kg, po. The format is functional.
In test [12] the test system is Mustela putorius furo. The test is described as follows: Reduction in the number of episodes of emesis in 4 ferrets at a dose of 0.5 mg/kg, po. The format is functional.
For test [13], the system named is Mustela putorius furo. The test is described as follows: Reduction in the number of episodes of emesis in ferrets at a dose of 0.01 mg/kg, po. The format is functional.
Test [14] relates to Rattus norvegicus. The experiment in a line: Time required to achieve 50% recovery of Bezold-Jarisch reflex in 4 rats at a dose of 6 ug/kg, iv. The format is functional.
In test [15] the test system is Rattus norvegicus. The test is described as follows: Dose required for inhibition of bradycardia induced by a submaximal dose (iv) of 5-HT in 4 rats. The settings on record: read-out: ID50 (the source's name). The format is functional.
Test [16] relates to Rattus norvegicus. The test is described as follows: Percent maximum inhibition against Bezold-Jarisch reflex in 4 rats at a dose of 6 ug/kg, iv, after 5 min. The format is functional.
Test [17] concerns the target Alpha-2 adrenergic receptor (Rattus norvegicus). The test is described as follows: Affinity at Alpha-2 adrenergic receptor in rat brain.
In test [18] the test system is Rattus norvegicus. The test is described as follows: Time required to achieve 50% recovery of Bezold-Jarisch reflex in 5 rats at a dose of 6 ug/kg, iv. The format is functional.
Test [19] deals with Rattus norvegicus. The test is described as follows: Percent maximum inhibition against Bezold-Jarisch reflex in 5 rats at a dose of 6 ug/kg, iv. The format is functional.
In test [20] the test system is Rattus norvegicus. The test is described as follows: Time required to achieve 50% recovery of Bezold-Jarisch reflex in 9 rats at a dose of 6 ug/kg, iv. The format is functional.
The test system of test [21] is Rattus norvegicus. The test is described as follows: Dose required for inhibition of bradycardia induced by a submaximal dose (iv) of 5-HT in 5 rats. Conditions: read-out: ID50 (the source's name). The format is functional.
For test [22], the system named is Rattus norvegicus. The test is described as follows: Dose required for inhibition of bradycardia induced by a submaximal dose (iv) of 5-HT in 6 rats. The format is functional. Conditions: read-out: ID50 (the source's name).

Chain of 5-hydroxytryptamine receptor 4 (Rattus norvegicus) (Q62758 whole entry): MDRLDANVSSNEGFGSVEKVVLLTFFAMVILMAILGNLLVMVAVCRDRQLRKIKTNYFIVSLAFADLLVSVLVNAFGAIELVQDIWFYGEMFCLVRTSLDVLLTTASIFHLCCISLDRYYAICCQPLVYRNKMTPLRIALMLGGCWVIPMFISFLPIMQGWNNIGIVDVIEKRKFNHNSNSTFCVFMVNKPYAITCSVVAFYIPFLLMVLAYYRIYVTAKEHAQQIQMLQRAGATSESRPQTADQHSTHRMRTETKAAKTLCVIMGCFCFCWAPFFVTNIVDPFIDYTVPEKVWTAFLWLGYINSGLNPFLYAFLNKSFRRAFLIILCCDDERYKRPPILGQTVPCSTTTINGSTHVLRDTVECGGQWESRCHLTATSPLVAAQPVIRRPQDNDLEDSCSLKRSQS
Chain of Serotonin 2 (5-HT2) receptor (Rattus norvegicus) (P14842 whole entry, looked up, one chain of several): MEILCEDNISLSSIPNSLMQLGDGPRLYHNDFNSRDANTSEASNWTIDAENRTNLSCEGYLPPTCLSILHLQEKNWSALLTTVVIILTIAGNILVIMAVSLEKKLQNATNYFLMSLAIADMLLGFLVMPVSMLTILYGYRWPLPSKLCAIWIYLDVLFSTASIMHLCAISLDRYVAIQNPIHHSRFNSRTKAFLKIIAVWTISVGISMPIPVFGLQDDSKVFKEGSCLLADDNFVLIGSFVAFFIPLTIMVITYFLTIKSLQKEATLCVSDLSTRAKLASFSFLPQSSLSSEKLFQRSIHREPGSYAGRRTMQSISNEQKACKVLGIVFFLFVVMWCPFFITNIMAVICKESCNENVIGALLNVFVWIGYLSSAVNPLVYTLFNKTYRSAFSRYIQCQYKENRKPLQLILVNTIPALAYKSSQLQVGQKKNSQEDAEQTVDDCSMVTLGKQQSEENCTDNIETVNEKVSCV
Chain of Serotonin 2 (5-HT2) receptor (Rattus norvegicus) (P30994 whole entry, looked up, one chain of several): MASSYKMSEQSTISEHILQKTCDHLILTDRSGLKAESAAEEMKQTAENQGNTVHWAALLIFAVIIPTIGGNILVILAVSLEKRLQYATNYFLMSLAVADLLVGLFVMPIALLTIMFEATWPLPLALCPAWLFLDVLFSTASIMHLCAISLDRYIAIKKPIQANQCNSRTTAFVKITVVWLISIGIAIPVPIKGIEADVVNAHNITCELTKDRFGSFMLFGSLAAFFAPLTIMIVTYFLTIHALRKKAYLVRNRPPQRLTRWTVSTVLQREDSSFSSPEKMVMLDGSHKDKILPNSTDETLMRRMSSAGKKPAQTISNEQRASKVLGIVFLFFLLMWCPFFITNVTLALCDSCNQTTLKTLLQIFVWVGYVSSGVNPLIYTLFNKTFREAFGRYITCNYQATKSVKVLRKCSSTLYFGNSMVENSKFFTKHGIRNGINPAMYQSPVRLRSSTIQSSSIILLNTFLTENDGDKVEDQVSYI
Chain of 5-hydroxytryptamine receptor 1D (Rattus norvegicus) (P28565 whole entry): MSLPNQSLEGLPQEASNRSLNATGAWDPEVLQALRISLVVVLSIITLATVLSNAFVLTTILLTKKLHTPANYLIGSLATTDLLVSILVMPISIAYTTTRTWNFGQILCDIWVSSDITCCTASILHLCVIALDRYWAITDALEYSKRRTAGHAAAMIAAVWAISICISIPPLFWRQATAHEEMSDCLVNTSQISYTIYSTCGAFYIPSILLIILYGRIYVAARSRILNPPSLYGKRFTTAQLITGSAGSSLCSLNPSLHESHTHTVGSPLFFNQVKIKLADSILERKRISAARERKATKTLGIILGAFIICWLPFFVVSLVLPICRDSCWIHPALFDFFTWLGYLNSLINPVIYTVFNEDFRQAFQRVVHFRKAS

`CC1(C)CN(C(=O)CCc2c[nH]cn2)c2ccccc21`: in the test on Rattus norvegicus [1], the ED50 is 4.2 µg/kg.
Consider `COc1ccccc1NC(=O)NC1CC2CCC(C1)N2C` (centres undefined), for which, in the test with Rattus norvegicus [2], the ED50 is 2.5 µg/kg.
With `CN1C2CCC1CC(NC(=O)N1CC(C)(C)c3ccccc31)C2` (centres undefined), the ED50 in the test with Rattus norvegicus [3] is 0.67 µg/kg.
On to `Cc1[nH]cnc1CCC(=O)N1CC(C)(C)c2ccccc21`, for which the result in [4], in [5], in test [6], in test [7] and in test [9] was inactive. For the same molecule, the pA2 in [8] stood at 8.1. Moreover, the Latency time in the test with Mustela putorius furo [10] came to 22.5 min; in the test with Mustela putorius furo [11], 90.5 min. Also, the Reduction in the test on Mustela putorius furo [12] was determined as 1.3; in the test on Mustela putorius furo [13], 7.7. For the same molecule, the Duration with Rattus norvegicus [14] was found to be 66 min. Moreover, the ED50 with Rattus norvegicus [15] was determined as 2.2 µg/kg. In the test with Rattus norvegicus [16], this molecule returned an inhibition in vivo at 0.006 mg/kg of 91%. Besides, the “Log Ki” value in test [17] was -6.2.
In the case of `Cc1nccn1CC1CCc2c(c3ccccc3n2C)C1=O` (centres undefined) [ONDANSETRON], the Duration with Rattus norvegicus [18] is recorded as 14 min. The ED50 in the test with Rattus norvegicus [15] stood at 3.6 µg/kg. In addition, the inhibition in vivo at 0.006 mg/kg in the test on Rattus norvegicus [19] came to 68%.
As to `CN1C2CCCC1CC(NC(=O)c1nn(C)c3ccccc13)C2` (centres undefined) [GRANISETRON], the Duration with Rattus norvegicus [20] is listed as 46 min.
As to `COc1ccccc1NC(=O)CCc1[nH]cnc1C`, in the test on Rattus norvegicus [21], the ED50 was found to be 20 µg/kg.
Still for that read-out and setting: then `COc1ccccc1NC(=O)CCc1c[nH]cn1`, with 35 µg/kg.
As for `Cc1[nH]cnc1CCC(=O)c1nn(C)c2ccccc12`, in the test with Rattus norvegicus [22], the ED50 was 3.1 µg/kg.

One may read the pA2 as the negative logarithm of the molar antagonist concentration that doubles the agonist concentration needed for the same response. Higher therefore signals higher antagonist potency. What is called inhibition in vivo is the share of the control response that was lost under treatment. Higher therefore signals a strong effect.
